Assay results published in PubChem BioAssay (NCI).
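Each compound was tested at five concentrations against cells in 96-well plates for 48 hours. TGI denotes the concentration required for complete inhibition of growth.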

Tests used:
Assay in all cases: NCI tumour cell line growth inhibition, 48 h
786-0 renal = tested on: 786-0 renal
UACC-257 melanoma = tested on: UACC-257 melanoma
UACC-62 melanoma = tested on: UACC-62 melanoma
MDA-N = tested on: MDA-N
NCI-H460 lung = tested on: NCI-H460 lung
U251 CNS = tested on: U251 CNS
IGROV1 ovarian = tested on: IGROV1 ovarian
MDA-MB-435 = tested on: MDA-MB-435
DU-145 prostate = tested on: DU-145 prostate
HT29 colon = tested on: HT29 colon
EKVX NSCLC = tested on: EKVX NSCLC
SF-268 CNS = tested on: SF-268 CNS
HCT-116 colon = tested on: HCT-116 colon
CCRF-CEM leukemia = tested on: CCRF-CEM leukemia
MDA-MB-231 breast = tested on: MDA-MB-231 breast
NCI/ADR-RES ovarian = tested on: NCI/ADR-RES ovarian
HS 578T breast = tested on: HS 578T breast
OVCAR-4 ovarian = tested on: OVCAR-4 ovarian
NCI-H522 lung = tested on: NCI-H522 lung
BT-549 breast = tested on: BT-549 breast
HCT-15 colon = tested on: HCT-15 colon
M14 melanoma = tested on: M14 melanoma
OVCAR-8 ovarian = tested on: OVCAR-8 ovarian
MALME-3M melanoma = tested on: MALME-3M melanoma
UO-31 renal = tested on: UO-31 renal
OVCAR-3 ovarian = tested on: OVCAR-3 ovarian
T-47D breast = tested on: T-47D breast
SR leukemia = tested on: SR leukemia
SK-MEL-2 melanoma = tested on: SK-MEL-2 melanoma
SK-OV-3 ovarian = tested on: SK-OV-3 ovarian
SF-295 CNS = tested on: SF-295 CNS
SN12C renal = tested on: SN12C renal
SK-MEL-28 melanoma = tested on: SK-MEL-28 melanoma
SNB-19 CNS = tested on: SNB-19 CNS
RXF 393 renal = tested on: RXF 393 renal
KM12 colon = tested on: KM12 colon
K-562 leukemia = tested on: K-562 leukemia
NCI-H226 lung = tested on: NCI-H226 lung
SNB-75 CNS = tested on: SNB-75 CNS
A549 NSCLC = tested on: A549 NSCLC
HOP-62 NSCLC = tested on: HOP-62 NSCLC
SF-539 CNS = tested on: SF-539 CNS
PC-3 prostate = tested on: PC-3 prostate
HOP-92 NSCLC = tested on: HOP-92 NSCLC
NCI-H23 lung = tested on: NCI-H23 lung
HL-60(TB) leukemia = tested on: HL-60(TB) leukemia
RPMI-8226 leukemia = tested on: RPMI-8226 leukemia
TK-10 renal = tested on: TK-10 renal
HCC-2998 colon = tested on: HCC-2998 colon
CAKI-1 renal = tested on: CAKI-1 renal
MCF7 breast = tested on: MCF7 breast
A498 renal = tested on: A498 renal
SK-MEL-5 melanoma = tested on: SK-MEL-5 melanoma
LOX IMVI melanoma = tested on: LOX IMVI melanoma
SW-620 colon = tested on: SW-620 colon
COLO 205 colon = tested on: COLO 205 colon
ACHN renal = tested on: ACHN renal
OVCAR-5 ovarian = tested on: OVCAR-5 ovarian
MOLT-4 leukemia = tested on: MOLT-4 leukemia

CN(C)CCNC(=O)c1ccc(Cl)c2cc3ccccc3nc12
TGI (786-0 renal): 5.61 µM
TGI (UACC-257 melanoma): 2.64 µM
TGI (UACC-62 melanoma): 2.85 µM
TGI (MDA-N): 2.21 µM
TGI (NCI-H460 lung): 3.9 µM
TGI (U251 CNS): 10.6 µM
TGI (IGROV1 ovarian): 11.3 µM
TGI (MDA-MB-435): 2.22 µM
TGI (DU-145 prostate): 6.2 µM
TGI (HT29 colon): 4.9 µM
TGI (EKVX NSCLC): 4.78 µM
TGI (SF-268 CNS): 5.05 µM
TGI (HCT-116 colon): 5.48 µM
TGI (CCRF-CEM leukemia): 4.64 µM
TGI (MDA-MB-231 breast): 3 µM
TGI (NCI/ADR-RES ovarian): 5.65 µM
TGI (HS 578T breast): 3.07 µM
TGI (OVCAR-4 ovarian): 3.34 µM
TGI (NCI-H522 lung): 2.07 µM
TGI (BT-549 breast): 7.82 µM
TGI (HCT-15 colon): 7.15 µM
TGI (M14 melanoma): 2.62 µM
TGI (OVCAR-8 ovarian): 6.44 µM
TGI (MALME-3M melanoma): 2.26 µM
TGI (UO-31 renal): 11 µM
TGI (OVCAR-3 ovarian): 6.88 µM
TGI (T-47D breast): 12.1 µM
TGI (SR leukemia): 3.03 µM
TGI (SK-MEL-2 melanoma): 4.94 µM
TGI (SK-OV-3 ovarian): 12.8 µM
TGI (SF-295 CNS): 4.33 µM
TGI (SN12C renal): 4.18 µM
TGI (SK-MEL-28 melanoma): 4.03 µM
TGI (SNB-19 CNS): 14.3 µM
TGI (RXF 393 renal): 3.08 µM
TGI (KM12 colon): 11.4 µM
TGI (K-562 leukemia): 12.3 µM
TGI (NCI-H226 lung): 4.7 µM
TGI (SNB-75 CNS): 5.84 µM
TGI (A549 NSCLC): 3.08 µM
TGI (HOP-62 NSCLC): 4.6 µM
TGI (SF-539 CNS): 3.28 µM
TGI (PC-3 prostate): 2.6 µM
TGI (HOP-92 NSCLC): 2.2 µM
TGI (NCI-H23 lung): 2.08 µM
TGI (HL-60(TB) leukemia): 3.98 µM
TGI (RPMI-8226 leukemia): 3.9 µM
TGI (TK-10 renal): 5.95 µM
TGI (HCC-2998 colon): 3.52 µM
TGI (CAKI-1 renal): 11.6 µM
TGI (MCF7 breast): 3.58 µM
TGI (A498 renal): 1.33 µM
TGI (SK-MEL-5 melanoma): 2.44 µM
TGI (LOX IMVI melanoma): 1.4 µM
TGI (SW-620 colon): 6.68 µM
TGI (COLO 205 colon): 1.64 µM
TGI (ACHN renal): 12.1 µM
TGI (OVCAR-5 ovarian): 10.7 µM
TGI (MOLT-4 leukemia): 4.03 µM

CCCc1nnc2sc(COc3cc(Cl)c(OCc4nn5c(CCC)nnc5s4)cc3Cl)nn12
TGI (786-0 renal): > 100 µM
TGI (UACC-257 melanoma): > 100 µM
TGI (UACC-62 melanoma): > 100 µM
TGI (MDA-N): > 100 µM
TGI (NCI-H460 lung): > 100 µM
TGI (U251 CNS): > 100 µM
TGI (IGROV1 ovarian): > 100 µM
TGI (MDA-MB-435): > 100 µM
TGI (DU-145 prostate): > 100 µM
TGI (HT29 colon): > 100 µM
TGI (EKVX NSCLC): 82.2 µM
TGI (SF-268 CNS): > 100 µM
TGI (HCT-116 colon): > 100 µM
TGI (CCRF-CEM leukemia): 46.8 µM
TGI (MDA-MB-231 breast): > 100 µM
TGI (NCI/ADR-RES ovarian): > 100 µM
TGI (HS 578T breast): > 100 µM
TGI (OVCAR-4 ovarian): 80.5 µM
TGI (NCI-H522 lung): > 100 µM
TGI (BT-549 breast): > 100 µM
TGI (HCT-15 colon): > 100 µM
TGI (M14 melanoma): > 100 µM
TGI (OVCAR-8 ovarian): > 100 µM
TGI (MALME-3M melanoma): > 100 µM
TGI (OVCAR-3 ovarian): 78.5 µM
TGI (T-47D breast): 63.5 µM
TGI (SR leukemia): 1.77 µM
TGI (SK-MEL-2 melanoma): > 100 µM
TGI (SK-OV-3 ovarian): 82.5 µM
TGI (SF-295 CNS): > 100 µM
TGI (SN12C renal): > 100 µM
TGI (SK-MEL-28 melanoma): > 100 µM
TGI (SNB-19 CNS): > 100 µM
TGI (RXF 393 renal): > 100 µM
TGI (KM12 colon): > 100 µM
TGI (K-562 leukemia): > 100 µM
TGI (NCI-H226 lung): > 100 µM
TGI (SNB-75 CNS): 45.3 µM
TGI (A549 NSCLC): > 100 µM
TGI (HOP-62 NSCLC): > 100 µM
TGI (SF-539 CNS): > 100 µM
TGI (PC-3 prostate): > 100 µM
TGI (HOP-92 NSCLC): 70.7 µM
TGI (NCI-H23 lung): > 100 µM
TGI (HL-60(TB) leukemia): 80.5 µM
TGI (RPMI-8226 leukemia): > 100 µM
TGI (TK-10 renal): > 100 µM
TGI (HCC-2998 colon): > 100 µM
TGI (CAKI-1 renal): > 100 µM
TGI (MCF7 breast): 72.9 µM
TGI (A498 renal): 98.4 µM
TGI (SK-MEL-5 melanoma): 32.1 µM
TGI (LOX IMVI melanoma): > 100 µM
TGI (SW-620 colon): > 100 µM
TGI (COLO 205 colon): > 100 µM
TGI (ACHN renal): > 100 µM
TGI (OVCAR-5 ovarian): > 100 µM
TGI (MOLT-4 leukemia): > 100 µM
